Values joined by “and” are separate entries in the source; they are usually repeats but may differ in a detail not shown here. Equal entries are not always repeated. Inconclusive results and toxic doses are left out.

For 21 molecules, T/C results are on record in PubChem BioAssay AID248 (DTP/NCI, 2004).

The assay concerns L1210 leukemia ip in BDF1 mice, survival T/C. Briefly: NCI In Vivo Anticancer Drug Screen. Data for tumor model L1210 Leukemia (intraperitoneal) in B6D2F1 (BDF1) mice. Conditions: endpoint: mean survival time, higher = longer survival. Summed up:
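Value reflects the ratio of survival in compound-treated mice to survival in vehicle-treated controls, with both groups carrying the same transplanted tumor.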

Setting [1] is: dose: 100.0 mg/kg/injection, schedule: Q01DX001 (ip), vehicle: saline.
The mark [2] stands for this setting: dose: 50.0 mg/kg/injection, schedule: Q01DX001 (ip), vehicle: saline.
The mark [3] stands for this setting: dose: 200.0 mg/kg/injection, schedule: Q01DX001 (ip), vehicle: saline.
[4] abbreviates: dose: 400.0 mg/kg/injection, schedule: Q01DX001 (ip), vehicle: saline.
Where [5] appears, read: dose: 100.0 mg/kg/injection, schedule: Q04DX003 (ip), vehicle: saline with Tween-80.
The mark [6] stands for this setting: dose: 200.0 mg/kg/injection, schedule: Q04DX003 (ip), vehicle: saline with Tween-80.
[7] abbreviates: dose: 400.0 mg/kg/injection, schedule: Q04DX003 (ip), vehicle: saline with Tween-80.
The mark [8] stands for this setting: dose: 100.0 mg/kg/injection, schedule: Q01DX009 (ip), vehicle: Klucel (hydroxypropylcellulose) (HPC).
The mark [9] stands for this setting: dose: 200.0 mg/kg/injection, schedule: Q01DX009 (ip), vehicle: Klucel (hydroxypropylcellulose) (HPC).
Where [10] appears, read: dose: 400.0 mg/kg/injection, schedule: Q01DX009 (ip), vehicle: Klucel (hydroxypropylcellulose) (HPC).
Where [11] appears, read: dose: 100.0 mg/kg/injection, schedule: Q04DX003 (ip), vehicle: Klucel (hydroxypropylcellulose) (HPC).
Where [12] appears, read: dose: 200.0 mg/kg/injection, schedule: Q04DX003 (ip), vehicle: Klucel (hydroxypropylcellulose) (HPC).
The mark [13] stands for this setting: dose: 400.0 mg/kg/injection, schedule: Q04DX003 (ip), vehicle: Klucel (hydroxypropylcellulose) (HPC).
[14] abbreviates: dose: 100.0 mg/kg/injection, schedule: Q01DX009 (ip), vehicle: saline with Tween-80.
Setting [15] is: dose: 200.0 mg/kg/injection, schedule: Q01DX009 (ip), vehicle: saline with Tween-80.
Where [16] appears, read: dose: 400.0 mg/kg/injection, schedule: Q01DX009 (ip), vehicle: saline with Tween-80.

With `CCC[CH2][Sn]([CH2]CCC)([CH2]CCC)[S]C(=S)NCCNC(=S)[S][Sn]([CH2]CCC)([CH2]CCC)[CH2]CCC`, the T/C is, setting by setting: (dose: 0.5 mg/kg/injection, schedule: Q01DX015 (ip), vehicle: carboxymethylcellulose (CMC)) 101 % of control; (dose: 1.0 mg/kg/injection, schedule: Q01DX015 (ip), vehicle: carboxymethylcellulose (CMC)) 103 % of control; (dose: 2.5 mg/kg/injection, schedule: Q01DX001 (ip), vehicle: saline) 108 % of control; (dose: 2.5 mg/kg/injection, schedule: Q01DX015 (ip), vehicle: carboxymethylcellulose (CMC)) 110 % of control; (dose: 5.0 mg/kg/injection, schedule: Q01DX001 (ip), vehicle: saline) 108 % of control; (dose: 5.0 mg/kg/injection, schedule: Q01DX015 (ip), vehicle: carboxymethylcellulose (CMC)) 103 % of control. Further, the T/C (dose: 10.0 mg/kg/injection, schedule: Q01DX001 (ip), vehicle: saline) is 101 % of control; the T/C (dose: 10.0 mg/kg/injection, schedule: Q01DX015 (ip), vehicle: carboxymethylcellulose (CMC)) was 113 % of control; the T/C (dose: 20.0 mg/kg/injection, schedule: Q01DX015 (ip), vehicle: carboxymethylcellulose (CMC)) was 101 % of control; the T/C (dose: 30.0 micrograms/kg/injection, schedule: Q01DX015 (ip), vehicle: carboxymethylcellulose (CMC)) was 106 % of control; the T/C (dose: 60.0 micrograms/kg/injection, schedule: Q01DX015 (ip), vehicle: carboxymethylcellulose (CMC)) was 110 % of control; the T/C (dose: 120.0 micrograms/kg/injection, schedule: Q01DX015 (ip), vehicle: carboxymethylcellulose (CMC)) was 102 % of control. Also, the T/C (dose: 240.0 micrograms/kg/injection, schedule: Q01DX015 (ip), vehicle: carboxymethylcellulose (CMC)) is 102 % of control.

In the case of `O=C(NCCCCCCNC(=O)NS(=O)(=O)c1ccccc1)NS(=O)(=O)c1ccccc1`, the T/C by setting is: (dose: 50.0 mg/kg/injection, schedule: Q01DX001 (ip), vehicle: carboxymethylcellulose (CMC)) 119 % of control; (dose: 100.0 mg/kg/injection, schedule: Q01DX001 (ip), vehicle: carboxymethylcellulose (CMC)) 102 % of control; (dose: 200.0 mg/kg/injection, schedule: Q01DX001 (ip), vehicle: carboxymethylcellulose (CMC)) 107 % of control; (dose: 400.0 mg/kg/injection, schedule: Q01DX001 (ip), vehicle: carboxymethylcellulose (CMC)) 105 % of control.

On to `Cc1ccccc1NC1=C(Cl)C(=O)c2ccccc2C1=O`, for which the T/C runs as follows: (dose: 25.0 mg/kg/injection, schedule: Q04DX003 (ip), vehicle: saline) 93 % of control; (dose: 50.0 mg/kg/injection, schedule: Q04DX003 (ip), vehicle: saline) 93 % of control; under setting [1], 93 % of control.

Take `O=C(O)O.[Co].[NH-]CC[N-]CC[N-]CC[NH-]`: the T/C under setting [2] was 97 % of control, the T/C under setting [1] is 108 % of control, the T/C under setting [3] is 92 % of control and the T/C under setting [4] is 100 % of control.

In the case of `CCN(C(=O)c1cc(OC)c(OC)c(OC)c1)C1CCCCC1`, the T/C is 101 % of control under setting [5], 107 % of control under setting [6] and 96 % of control under setting [7].

Take `O=S1(=O)CC(N2CCCCC2)C12CC1c3ccccc3C2c2ccccc21` (stereo unspecified): the T/C (dose: 100.0 mg/kg/injection, schedule: Q04DX002 (ip), vehicle: Klucel (hydroxypropylcellulose) (HPC)) was 104 % of control; the T/C (dose: 200.0 mg/kg/injection, schedule: Q04DX002 (ip), vehicle: Klucel (hydroxypropylcellulose) (HPC)) was 101 % of control; the T/C (dose: 400.0 mg/kg/injection, schedule: Q04DX002 (ip), vehicle: Klucel (hydroxypropylcellulose) (HPC)) was 101 % of control.

For the molecule `Cc1ccc(C)c(NS(=O)(=O)c2ccc(Cl)c([N+](=O)[O-])c2)c1`, the T/C was 110 % of control under setting [8], 105 % of control under setting [9] and 107 % of control under setting [10].

With `O=C(Nc1cc(Cl)ccc1Cl)c1cccc(F)c1`, the T/C is 92 % of control under setting [8], 98 % of control under setting [9] and 98 % of control under setting [10].

Regarding `Cc1cccc(C)c1NC(=O)NC(C)C`, the T/C is, setting by setting: under setting [8], 106 % of control; under setting [11], 93 % of control; under setting [9], 94 % of control; under setting [12], 94 % of control; under setting [10], 99 % of control; under setting [13], 93 % of control.

Regarding `COC(=O)c1[nH]cnc1/N=N/N(C)CCO`, the T/C was 95 % of control (dose: 88.0 mg/kg/injection, schedule: Q01DX001 (ip), vehicle: saline); 104 % of control under setting [1]; 97 % of control (dose: 133.0 mg/kg/injection, schedule: Q01DX001 (ip), vehicle: saline); 101 % of control and 107 % of control under setting [3]; 109 % of control (dose: 267.0 mg/kg/injection, schedule: Q01DX009 (ip), vehicle: saline); 103 % of control (dose: 300.0 mg/kg/injection, schedule: Q01DX001 (ip), vehicle: saline). Moreover, the T/C is 102 % of control under setting [4]; 100 % of control (dose: 400.0 mg/kg/injection, schedule: Q01DX009 (ip), vehicle: saline); 109 % of control (dose: 600.0 mg/kg/injection, schedule: Q01DX009 (ip), vehicle: saline); 157 % of control (dose: 600.0 mg/kg/injection, schedule: Q01DX015 (ip), vehicle: saline); 111 % of control (dose: 900.0 mg/kg/injection, schedule: Q01DX009 (ip), vehicle: saline).

As for `Cc1cc(Cl)cc(CN(C)C)c1O.[Cu+2]`, the T/C by setting is: under setting [2], 97 % of control; under setting [1], 97 % of control; under setting [3], 113 % of control.

In the case of `COc1ccc(N2C(=O)CCC2=O)cc1`, the T/C is 107 % of control under setting [14]; 106 % of control under setting [5]; 95 % of control under setting [15]; 92 % of control under setting [6]; 98 % of control under setting [16]; 111 % of control under setting [7].

For the molecule `Fc1ccccc1NC1=NCCO1`, the T/C is 101 % of control under setting [11], 95 % of control under setting [12] and 92 % of control under setting [13].

Turning to `Cc1c(Cl)cccc1NC(=O)Oc1ccc(-c2ccccc2)cc1`, the T/C runs as follows: (dose: 50.0 mg/kg/injection, schedule: Q04DX003 (ip), vehicle: saline with Tween-80) 97 % of control; under setting [14], 95 % of control and 97 % of control; (dose: 100.0 mg/kg/injection, schedule: Q04DX002 (ip), vehicle: saline with Tween-80) 93 % of control and 91 % of control; under setting [5], 101 % of control; under setting [15], 104 % of control and 89 % of control; (dose: 200.0 mg/kg/injection, schedule: Q04DX002 (ip), vehicle: saline with Tween-80) 96 % of control. The T/C under setting [6] was 100 % of control; the T/C (dose: 400.0 mg/kg/injection, schedule: Q04DX002 (ip), vehicle: saline with Tween-80) is 96 % of control and 103 % of control.

Regarding `NC1CCC(Cl)CC1` (stereo unspecified), the T/C is 95 % of control under setting [1]; 99 % of control (dose: 100.0 mg/kg/injection, schedule: Q04DX003 (ip), vehicle: saline); 106 % of control under setting [3]; 99 % of control (dose: 200.0 mg/kg/injection, schedule: Q04DX003 (ip), vehicle: saline); 92 % of control under setting [4].

With `O=C(COc1ccc([N+](=O)[O-])cc1Cl)Nc1cccc(S(=O)(=O)F)c1`, the T/C runs as follows: under setting [11], 98 % of control; under setting [12], 106 % of control; under setting [13], 91 % of control.

As to `COC(OC)c1cc(=O)n(C)c(=O)[nH]1`, the T/C is 104 % of control under setting [5]; 93 % of control under setting [15]; 104 % of control under setting [6]; 89 % of control under setting [16]; 100 % of control under setting [7].

As to `Cn1cccc1/C=C/[N+](=O)[O-]`, the T/C is 104 % of control under setting [2] and 91 % of control under setting [1].

As to `CCC(Nc1ccccc1)C(=O)O` (stereo unspecified), the T/C under setting [1] is 96 % of control, the T/C under setting [3] is 100 % of control and the T/C under setting [4] is 102 % of control.

Turning to `CC(=O)C(C(c1ccccc1)N1CCCc2ccccc21)N1CCOCC1` (stereo unspecified), the T/C reads like this: under setting [8], 96 % of control; under setting [9], 91 % of control; under setting [10], 98 % of control.

Consider `CCOP1(=O)NC(=O)C=C(C)N1` (stereo unspecified), for which the T/C (dose: 60.0 mg/kg/injection, schedule: Q04DX002 (ip), vehicle: sodium bicarbonate) is 102 % of control and the T/C (dose: 120.0 mg/kg/injection, schedule: Q04DX002 (ip), vehicle: sodium bicarbonate) was 97 % of control.
